Measurements published in patent publication US20020102533A1, “Hepatitis C protease exosite for inhibit or design” (priority 2000, published 2002).
pKi: −log10 of the molar value. Where a SMILES comes first, the peptide text is derived from it. [ ]: non-standard residue; d: D form. Dip = N[C@H](C(=O)O)C(c1ccccc1)c1ccccc1; Cha = N[C@@H](CC1CCCCC1)C(=O)O

How the values were obtained:
[1] = target: T1, HCV NS3 protease, genotype 1a (Hepatitis C virus genotype 1a, UniProt P26664); test: biochemical; format: biochemical
T1 construct: NS3 protease catalytic domain (amino acids 1 to 192); MGAQH expression leader (5 aa), or alternatively the 15 aa His tag […]; made in house; host or cells: E. coli BL21 (DE3)
Description: Endpoint HPLC based HCV protease assay: HCV protease (5 nM) was incubated in 50 mM Tris pH 7.5, 0.1% maltoside, 5 mM DTT and appropriate amounts of glycerol, NS4A peptide, and substrate. Routine assays were 100 μl in volume containing 15% or 50% glycerol, 5.0 μM NS4A peptide and 5.0 μM substrate. Reactions were run at room temperature (˜22° C.) and quenched by the addition of 4 μl of 10% TFA before 10% of the substrate was consumed. Incubation times were 20 minutes for the ester substrate (Peptide Substrate A) and 80 minutes for the P6-P7′ amide substrate (Peptide Substrate B). […] Incubation times were 90 min. Samples, 50 μl, were injected onto an Hewlett Packard 1090 Liquid Chromatograph containing a Dynamax-60A C18 column. The column was eluted with a linear gradient from 10% acetonitrile to 45% acetonitrile in water. All solvents contained 0.1% TFA. A flow rate of 1 ml/min was used. […] The product peaks were detected by fluorescence excitation at 350 nm and emission at 500 nm.
Continuous fluorescence-based HCV protease assay: This asay was a modified version of method of Taliani (Taliani, M.; et al. Anal. Biochem. 240, 60-67, 1996) using Substrate A (Ac-D-E-D(EDANS)-E-E-Abuψ[COO]-A-S-K(DABCYL)—NH2). Assays were run in a 96-well microtiter plates using a Perkin Elmer Luminescence Spectrometer LS50B exciting at 350 nm (10 nm slit) and emitting at 500 nm (10 nm slit). In a typical assay the protease (1-4 nM) was incubated with 10 μM NS4a peptide in 50 mM Tris pH 7.0, 5.0 mM DTT, 50% glycerol, and […] for 15 min. Catalysis was initiated by the addition of Substrate A (final concentration 5.0 μM). Assays were also run under conditions where 15% glycerol, 0.1% Maltoside were substituted for 50% glycerol and 5% CHAPS. Enzymatic activity was monitored by measuring the increase in fluorescence with time using excitation wavelength of 350 nm and an emission wavelength of 500 nm. Both slit widths were 10 nm. Inhibition constants were determined from a nonlinear least squares fit of the data to the equation Vi/Vo=1/(1+[I]/Kiapp). Where Vi is the velocity measured in the presence of inhibitor (inhibitors were introduced with the NS4a peptide) and Vo is the velocity of controls. The thermodynamic Ki was determined from Kiapparent via the relationship for competitive kinetics: Ki=Kiapp/(1+[S]/Km) where [S] is the substrate concentration.
Footnote a for Table 1 references the assay condiditions: 1) Substrate A=P6-P3′, HCV protease (4.0 nM) was incubated with various concentrations of truncated analogs of Q9692 in 50 mM Tris buffer, pH 7.0, 15% glycerol, 0.1% maltoside, 5 mM DTT and 10 μM NS4A peptide in a 96-well microtiter plate at room temperature. After 15 minutes catalysis was initiated by the addition of Ac-D-E-D(EDANS)-E-E-Abuψ[COO]-A-S-K(DABCYL)—NH2 (final concentration 5.0 μM in a total reaction volume of 200 μl). Enzymatic activity was monitored by measuring the increase in fluorescence with time on a Perkin Elmer LS50B luminescence spectrometer (excitation 350 nm, emission 500 nm, both slits 10 nm). […] Assays were 100 μl in volume, reactions were run at room temperature (˜22 C) for 80 minutes (<10% of the substrate was consumed). The addition of 4 μl of 10% TFA quenched the reactions. Quantitation of hydrolysis products was determined by measuring fluorescent peak areas following HPLC. Products were detected by excitation at 350 nm and measuring emission at 500 nm. Aliquots (50 μl) of quenched enzymatic reactions were injected on an Hewlett Packard 1090 HPLC equipped with a ¼ inch Dynamex 60A C18 column. A linear gradient from 10% acetonitrile:H2O to 45% acetonitrile:H2O was run over a period of 15 min at a flow rate of 1.0 ml/min. All solvents contained 0.1% TFA.

[2] = target: HCV protease (Hepatitis C virus genotype 1b, UniProt P26663); conditions: substrate Ac-[…](Edans)—NH2; cited from earlier work
[3] = target: T2, HCV protease 2A (Hepatitis C virus genotype 2a, UniProt P26660); test: HCV protease type 2a, 9-mer substrate; format: biochemical
T2 construct: the catalytic domains of types 1b, 1J and 2a have also been examined
Description: It is understood that other forms of HCV protease may be used in an assay for the determination of inhibitors. The present invention has disclosed the 1A form of HCV protease, however, the catalytic domains of types 1b, 1J and 2a have also been examined, as well as, the full-length version of form 1b. Evidence for the exosite exists in each case. Activation by Q9692 follows the trend of activation by NS4a. Forms of the enzyme that are more sensitive to NS4a display greater stimulation by Q9692 than forms that are less sensitive. In rank order sensitivity is 1J, 1B, 1A, and 2A. The catalytic activity of 2A toward the 9-mer substrate is enhanced by only 1.5-fold at 4 μM Q9692 and becomes inhibited by Q9692 at concentrations greater than 20 μM. […] Use of alternative forms of the HCV protease is relevent to development of an inexpensive and easy continous assay.

[4] = P6-P3′ ester substrate, 2 μM Q9692

SMILES: CC(=O)N[C@@H](CC(=O)O)C(=O)N[C@@H](CCC(=O)O)C(=O)N[C@H](C(=O)N[C@@H](CCC(=O)O)C(=O)N[C@@H](CC1CCCCC1)C(=O)N[C@@H](CS)C(=O)O)C(c1ccccc1)c1ccccc1 [Q9692, Ac-Asp-Glu-Dpa-Glu-Cha-Cys—OH] (Ac-DE[Dip]E[Cha]C-OH)
- Dixon plots of 1/V versus Q9717 concentration ([1]; 5 μM substrate spanning P6-P3′): intersecting lines
- concentration of maximum stimulation ([1]; P6-P3′ ester substrate): 4 µM
- concentrations at which inhibition was observed ([1]; P6-P3′ ester substrate): greater than 10.0 μM
- kcat of substrate [1, 4]: relatively unchanged
- reduction in Km of substrate [1, 4]: 5 fold
- activation of the enzyme (maximum stimulation) ([1]; P6-P3′ ester substrate, maximum at 4 μM Q9692): approximately 5 fold
- (S = P6-P3′) Inhibition(+) / Activation (−) ([1]; substrate A): −
- pKi [2]: 7.30
- concentrations at which enzyme becomes inhibited [3]: greater than 20 μM
- enhancement of catalytic activity ([3]; 4 μM Q9692): 1.5 fold
